Assay results from ChEMBL document CHEMBL6153042, “Glycoconjugates of adefovir and tenofovir as asialoglycoprotein-mediated Anti-HBV prodrugs with enhanced liver targeting” (Eur J Med Chem, 2025).

Key:
[1] = Toxicity in Kunming mouse assessed as histopathological changes in liver at 200 mg/kg, iv once daily for 5 days by H and E staining based analysis; format: organism-based; conditions: in vivo, 120 h, time 5 day
[2] = Toxicity in Kunming mouse assessed as effect on body weight at 100 to 200 mg/kg, iv administered once daily for 5 days; format: organism-based; conditions: in vivo, 120 h, dose 100-200 mg/kg, time 5 day
[3] = system: LX-2; assay: Cytotoxicity against human LX2 cells at 5 uM incubated for 48 hrs by CCK8 assay; format: toxicity, cell-based; conditions: lx-2, 48 h
[4] = Toxicity in Kunming mouse assessed as maximum tolerated dose administered intravenously as once daily dose for 5 days; conditions: in vivo, route iv, time 5 day
[5] = system: LX-2; assay: (§1) Cytotoxicity against human LX2 cells assessed as cell growth inhibition at 10 uM incubated for 48 hrs by CCK8 assay relative to control; format: toxicity, cell-based; conditions: lx-2, 48 h, 10 µM
[6] = Cytotoxicity against human HepG2.2.15 cells assessed as inhibition of cell proliferation by CCK8 assay; format: toxicity, cell-based, HepG2 2.2.15
[7] = system: Hepatitis B virus; assay: Antiviral activity against Hepatitis B virus infected in human HepG2.2.15 cells assessed as inhibition of HBV DNA replication incubated for 10 day by qPCR analysis; format: functional, organism-based; conditions: HepG2.2.15, 240 h
[8] = Selectivity index, the ratio of CC50 for human HepG2.2.15 cells to EC50 for antiviral activity against HBV in human HepG2.2.15 cells assessed as inhibition of HBV DNA replication; format: toxicity, cell-based; conditions: read-out: Ratio CC50/EC50
[9] = Toxicity in Kunming mouse assessed as histopathological changes in heart at 200 mg/kg, iv once daily for 5 days by H and E staining based analysis; format: organism-based; conditions: in vivo, 120 h, time 5 day
[10] = Toxicity in Kunming mouse assessed as histopathological changes in kidney at 200 mg/kg, iv once daily for 5 days by H and E staining based analysis; format: organism-based; conditions: in vivo, 120 h, time 5 day
[11] = Stability of compound in PBS buffer assessed as half-life by high-performance liquid chromatography; format: physicochemical
[12] = Drug uptake in Sprague-Dawley rat liver at 10 mg/kg, iv measured after 1 to 6 hrs by LC-MS/MS analysis; format: ADME, organism-based; conditions: in vivo, time 1-6 hrs
[13] = Drug metabolism in plasma of Sprague-Dawley rat assessed as (1-(36-(((2R,3R,4S,5R,6R)-3-acetamido-4,5-dihydroxy-6-(hydroxymethyl)tetrahydro-2H-pyran-2-yl)oxy)-21,21-bis((3-((3-(5-(((2R,3R,4S,5R,6R)-3-acetamido-4,5-dihydroxy-6-(hydroxymethyl)tetrahydro-2H-pyran-2-yl)oxy)pentanamido)propyl)amino)-3-oxopropoxy)methyl)-16,19,26,32-tetraoxo-3,6,9,12,23-pentaoxa-15,20,27,31-tetraazahexatriacontyl)-1H-1,2,3-triazol-4-yl)methyl hydrogen ((2-(6-amino-9H-purin-9-yl)ethoxy)methyl)phosphonate formation measured at 2.1 mins by HPLC analysis; format: ADME, cell-free; conditions: 0.035 h
[14] = Toxicity in Kunming mouse assessed as effect on heart colour at 100 to 200 mg/kg, iv once daily for 5 days; format: organism-based; conditions: in vivo, 120 h, dose 100-200 mg/kg, time 5 day
[15] = Toxicity in Kunming mouse assessed as effect on liver colour at 100 to 200 mg/kg, iv once daily for 5 days; format: organism-based; conditions: in vivo, 120 h, dose 100-200 mg/kg, time 5 day
[16] = Toxicity in Kunming mouse assessed as effect on kidney colour at 100 to 200 mg/kg, iv once daily for 5 days; format: organism-based; conditions: in vivo, 120 h, dose 100-200 mg/kg, time 5 day
[17] = Toxicity in Kunming mouse assessed as effect on heart size at 100 to 200 mg/kg, iv once daily for 5 days; format: organism-based; conditions: in vivo, 120 h, dose 100-200 mg/kg, time 5 day
[18] = Toxicity in Kunming mouse assessed as effect on liver size at 100 to 200 mg/kg, iv once daily for 5 days; format: organism-based; conditions: in vivo, 120 h, dose 100-200 mg/kg, time 5 day
[19] = Toxicity in Kunming mouse assessed as effect on kidney size at 100 to 200 mg/kg, iv once daily for 5 days; format: organism-based; conditions: in vivo, 120 h, dose 100-200 mg/kg, time 5 day
[20] = Toxicity in Kunming mouse assessed as effect on heart weight at 100 to 200 mg/kg, iv once daily for 5 days; format: organism-based; conditions: in vivo, 120 h, dose 100-200 mg/kg, time 5 day
[21] = Toxicity in Kunming mouse assessed as effect on liver weight at 100 to 200 mg/kg, iv once daily for 5 days; format: organism-based; conditions: in vivo, 120 h, dose 100-200 mg/kg, time 5 day
[22] = Toxicity in Kunming mouse assessed as effect on kidney weight at 100 to 200 mg/kg, iv once daily for 5 days; format: organism-based; conditions: in vivo, 120 h, dose 100-200 mg/kg, time 5 day
[23] = Drug metabolism in plasma of Sprague-Dawley rat assessed as hydrolyzed metabolite formation measured after 5 hrs by HPLC analysis; format: ADME, cell-free
[24] = Prodrug release in human HepG2 cells assessed as adefovir release measured over 1 hrs by HPLC analysis; format: ADME, cell-based; conditions: hepg2, 1 h
[25] = Prodrug release in human HepG2 cells assessed as tenofovir release measured over 1 hrs by HPLC analysis; format: ADME, cell-based; conditions: hepg2, 1 h
[26] = Prodrug release in human HepG2 cells assessed as adefovir release by mass spectrometric analysis; format: ADME, cell-based
[27] = Prodrug release in human HepG2 cells assessed as tenofovir release by mass spectrometric analysis; format: ADME, cell-based
[28] = as §1; format: toxicity, cell-based, LX-2; conditions: LX2 cells, read-out: GI
[29] = Drug uptake in Sprague-Dawley rat kidney at 10 mg/kg, iv measured after 1 to 6 hrs by LC-MS/MS analysis; format: ADME, organism-based; conditions: in vivo, time 1-6 hrs

For `CC(=O)N[C@H]1[C@H](OCCCCC(=O)NCCCNC(=O)CCOCC(COCCC(=O)NCCCNC(=O)CCCCO[C@@H]2O[C@H](CO)[C@H](O)[C@@H](O)[C@H]2NC(C)=O)(COCCC(=O)NCCCNC(=O)CCCCO[C@@H]2O[C@H](CO)[C@H](O)[C@@H](O)[C@H]2NC(C)=O)NC(=O)CCC(=O)NCCOCCOCCOCCOCCn2cc(COP(=O)(COCCn3cnc4c(N)ncnc43)OCOC(=O)C(C)(C)C)nn2)O[C@H](CO)[C@H](O)[C@H]1O` (some centres undefined), the Activity [1] was “Non-toxic”, the Activity [2] was “Non-toxic” and the Activity [3] was “Toxic”. For the same compound, the MTD at 120 h [4] was roughly 200 mg/kg, the Activity [5] was “Toxic” and the CC50 [6] was greater than 100000 nM. For the same compound, the EC50 [7] was 98.3 nM, the selectivity ratio [8] was greater than 1020 and the Activity [9] was “Non-toxic”. The Activity [10] was “Non-toxic”, the half-life [11] was greater than 24 h and the Drug uptake [12] was “Active”. The Drug metabolism [13] was “metabolite_detected”, the Activity [14] was “Non-toxic” and the Activity [15] was “Non-toxic”. For the same compound, the Activity [16] was “Non-toxic”, the Activity [17] was “Non-toxic” and the Activity [18] was “Non-toxic”. For the same compound, the Activity [19] was “Non-toxic”, the Activity [20] was “Non-toxic” and the Activity [21] was “Non-toxic”. The Activity [22] was “Non-toxic”.

With `CC(=O)N[C@H]1[C@H](OCCCCC(=O)NCCCNC(=O)CCOCC(COCCC(=O)NCCCNC(=O)CCCCO[C@@H]2O[C@H](CO)[C@H](O)[C@@H](O)[C@H]2NC(C)=O)(COCCC(=O)NCCCNC(=O)CCCCO[C@@H]2O[C@H](CO)[C@H](O)[C@@H](O)[C@H]2NC(C)=O)NC(=O)CCC(=O)NCCOCCOCCOCCOCCn2cc(COP(=O)(O)CO[C@H](C)Cn3cnc4c(N)ncnc43)nn2)O[C@H](CO)[C@H](O)[C@H]1O` (racemic) the Drug metabolism [23] was “metabolite_notdetected”, the Drug metabolism [24] was “metabolite_detected” and the Drug metabolism [25] was “metabolite_detected”. For the same compound, the Drug metabolism [26] was “metabolite_detected” and the Drug metabolism [27] was “metabolite_detected”.

For `CC(C)(C)C(=O)OCOP(=O)(COCCn1cnc2c(N)ncnc21)OCOC(=O)C(C)(C)C` [ADEFOVIR DIPIVOXIL], the Activity [3] was “Non-toxic”, the inhibition at 48 h, 10 µM [28] was roughly 30% and the CC50 [6] was 10700 nM. The EC50 [7] was 240 nM, the selectivity ratio [8] was 44.6 and the Drug uptake [29] was “Active”.

For `CC(C)OC(=O)OCOP(=O)(CO[C@H](C)Cn1cnc2c(N)ncnc21)OCOC(=O)OC(C)C.O=C(O)/C=C/C(=O)O` [TENOFOVIR DISOPROXIL FUMARATE], the Activity [3] was “Non-toxic”, the inhibition at 48 h, 10 µM [28] was roughly 30% and the CC50 [6] was 8200 nM. For the same compound, the EC50 [7] was 188 nM, the selectivity ratio [8] was 43.7 and the Drug uptake [29] was “Active”.
